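Briefly, cells in 96-well plates were exposed to five compound concentrations for 48 h, and endpoints were estimated by linear interpolation. TGI: concentration producing complete growth inhibition.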
Tested on: BT-549 breast
Experiment: NCI anticancer screen, dose series, 48 h

SMILES	TGI [µM]
O=C(CSc1nnc(SCC(=O)NN=C2CCCCC2)s1)NN=C1CCCCC1	> 100
Cc1cc2c(s1)C(N)CC2=O (configuration not stated)	> 100
Cc1cc2c(O)c(c1)COCc1cc(C)cc(c1O)COCc1cc(C)cc(c1O)COC2	> 100

Tested on: OVCAR-3 ovarian
Experiment: NCI anticancer screen, dose series, 48 h

SMILES	TGI [µM]
O=C(CSc1nnc(SCC(=O)NN=C2CCCCC2)s1)NN=C1CCCCC1	> 100
Oc1ccc(O)c(Cc2ccccc2)c1	7.8
Cc1cc2c(s1)C(N)CC2=O (configuration not stated)	> 100
Cc1cc2c(O)c(c1)COCc1cc(C)cc(c1O)COCc1cc(C)cc(c1O)COC2	> 100
OC(c1ccoc1)c1cc2ccccc2s1 (configuration not stated)	> 10

Tested on: MCF7 breast
Experiment: NCI anticancer screen, dose series, 48 h

SMILES	TGI [µM]
O=C(CSc1nnc(SCC(=O)NN=C2CCCCC2)s1)NN=C1CCCCC1	> 100
Oc1ccc(O)c(Cc2ccccc2)c1	29.4
Cc1cc2c(s1)C(N)CC2=O (configuration not stated)	> 100
Cc1cc2c(O)c(c1)COCc1cc(C)cc(c1O)COCc1cc(C)cc(c1O)COC2	> 100
OC(c1ccoc1)c1cc2ccccc2s1 (configuration not stated)	> 10

Tested on: HOP-92 NSCLC
Experiment: NCI anticancer screen, dose series, 48 h

SMILES	TGI [µM]
O=C(CSc1nnc(SCC(=O)NN=C2CCCCC2)s1)NN=C1CCCCC1	> 100
Oc1ccc(O)c(Cc2ccccc2)c1	35.6
Cc1cc2c(O)c(c1)COCc1cc(C)cc(c1O)COCc1cc(C)cc(c1O)COC2	> 100
OC(c1ccoc1)c1cc2ccccc2s1 (configuration not stated)	> 10

Tested on: OVCAR-5 ovarian
Experiment: NCI anticancer screen, dose series, 48 h

SMILES	TGI [µM]
O=C(CSc1nnc(SCC(=O)NN=C2CCCCC2)s1)NN=C1CCCCC1	> 100
Oc1ccc(O)c(Cc2ccccc2)c1	> 100
Cc1cc2c(s1)C(N)CC2=O (configuration not stated)	> 100
Cc1cc2c(O)c(c1)COCc1cc(C)cc(c1O)COCc1cc(C)cc(c1O)COC2	> 100
OC(c1ccoc1)c1cc2ccccc2s1 (configuration not stated)	> 10

Tested on: UACC-62 melanoma
Experiment: NCI anticancer screen, dose series, 48 h

SMILES	TGI [µM]
O=C(CSc1nnc(SCC(=O)NN=C2CCCCC2)s1)NN=C1CCCCC1	> 100
Oc1ccc(O)c(Cc2ccccc2)c1	56.1
Cc1cc2c(s1)C(N)CC2=O (configuration not stated)	> 100
Cc1cc2c(O)c(c1)COCc1cc(C)cc(c1O)COCc1cc(C)cc(c1O)COC2	> 100
OC(c1ccoc1)c1cc2ccccc2s1 (configuration not stated)	> 10

Tested on: UACC-257 melanoma
Experiment: NCI anticancer screen, dose series, 48 h

SMILES	TGI [µM]
O=C(CSc1nnc(SCC(=O)NN=C2CCCCC2)s1)NN=C1CCCCC1	> 100
Oc1ccc(O)c(Cc2ccccc2)c1	99.5
Cc1cc2c(s1)C(N)CC2=O (configuration not stated)	> 100
Cc1cc2c(O)c(c1)COCc1cc(C)cc(c1O)COCc1cc(C)cc(c1O)COC2	> 100
OC(c1ccoc1)c1cc2ccccc2s1 (configuration not stated)	> 10

Tested on: MALME-3M melanoma
Experiment: NCI anticancer screen, dose series, 48 h

SMILES	TGI [µM]
O=C(CSc1nnc(SCC(=O)NN=C2CCCCC2)s1)NN=C1CCCCC1	> 100
Oc1ccc(O)c(Cc2ccccc2)c1	88.9
Cc1cc2c(s1)C(N)CC2=O (configuration not stated)	> 100
Cc1cc2c(O)c(c1)COCc1cc(C)cc(c1O)COCc1cc(C)cc(c1O)COC2	> 100

Tested on: HS 578T breast
Experiment: NCI anticancer screen, dose series, 48 h

SMILES	TGI [µM]
Oc1ccc(O)c(Cc2ccccc2)c1	> 100
OC(c1ccoc1)c1cc2ccccc2s1 (configuration not stated)	> 10

Tested on: NCI/ADR-RES ovarian
Experiment: NCI anticancer screen, dose series, 48 h

SMILES	TGI [µM]
O=C(CSc1nnc(SCC(=O)NN=C2CCCCC2)s1)NN=C1CCCCC1	> 100
Oc1ccc(O)c(Cc2ccccc2)c1	42.9
Cc1cc2c(s1)C(N)CC2=O (configuration not stated)	> 100
Cc1cc2c(O)c(c1)COCc1cc(C)cc(c1O)COCc1cc(C)cc(c1O)COC2	> 100
OC(c1ccoc1)c1cc2ccccc2s1 (configuration not stated)	> 10

Tested on: CAKI-1 renal
Experiment: NCI anticancer screen, dose series, 48 h

SMILES	TGI [µM]
O=C(CSc1nnc(SCC(=O)NN=C2CCCCC2)s1)NN=C1CCCCC1	> 100
Cc1cc2c(s1)C(N)CC2=O (configuration not stated)	> 100
Cc1cc2c(O)c(c1)COCc1cc(C)cc(c1O)COCc1cc(C)cc(c1O)COC2	> 100
OC(c1ccoc1)c1cc2ccccc2s1 (configuration not stated)	> 10

Tested on: OVCAR-4 ovarian
Experiment: NCI anticancer screen, dose series, 48 h

SMILES	TGI [µM]
O=C(CSc1nnc(SCC(=O)NN=C2CCCCC2)s1)NN=C1CCCCC1	> 100
Oc1ccc(O)c(Cc2ccccc2)c1	27.2
Cc1cc2c(O)c(c1)COCc1cc(C)cc(c1O)COCc1cc(C)cc(c1O)COC2	> 100
OC(c1ccoc1)c1cc2ccccc2s1 (configuration not stated)	> 10

Tested on: RPMI-8226 leukemia
Experiment: NCI anticancer screen, dose series, 48 h

SMILES	TGI [µM]
O=C(CSc1nnc(SCC(=O)NN=C2CCCCC2)s1)NN=C1CCCCC1	> 100
Oc1ccc(O)c(Cc2ccccc2)c1	21.3
Cc1cc2c(s1)C(N)CC2=O (configuration not stated)	> 100
Cc1cc2c(O)c(c1)COCc1cc(C)cc(c1O)COCc1cc(C)cc(c1O)COC2	> 100
OC(c1ccoc1)c1cc2ccccc2s1 (configuration not stated)	> 10

Tested on: SF-268 CNS
Experiment: NCI anticancer screen, dose series, 48 h

SMILES	TGI [µM]
O=C(CSc1nnc(SCC(=O)NN=C2CCCCC2)s1)NN=C1CCCCC1	> 100
Oc1ccc(O)c(Cc2ccccc2)c1	27.8
Cc1cc2c(s1)C(N)CC2=O (configuration not stated)	> 100
Cc1cc2c(O)c(c1)COCc1cc(C)cc(c1O)COCc1cc(C)cc(c1O)COC2	> 100
OC(c1ccoc1)c1cc2ccccc2s1 (configuration not stated)	> 10

Tested on: TK-10 renal
Experiment: NCI anticancer screen, dose series, 48 h

SMILES	TGI [µM]
O=C(CSc1nnc(SCC(=O)NN=C2CCCCC2)s1)NN=C1CCCCC1	> 100
Oc1ccc(O)c(Cc2ccccc2)c1	51.3
Cc1cc2c(s1)C(N)CC2=O (configuration not stated)	> 100
OC(c1ccoc1)c1cc2ccccc2s1 (configuration not stated)	> 10

Tested on: SK-MEL-28 melanoma
Experiment: NCI anticancer screen, dose series, 48 h

SMILES	TGI [µM]
O=C(CSc1nnc(SCC(=O)NN=C2CCCCC2)s1)NN=C1CCCCC1	> 100
Oc1ccc(O)c(Cc2ccccc2)c1	> 100
